Results published in patent US10633351B2, “Halogenated compound and axially chiral isomer thereof” (MEDSHINE DISCOVERY INC., priority 2016, dated 2020).
Like-named read-outs stand apart in the source and are kept apart here.

Columns and labels:
[1] = Metabolite identification after 120 min incubation in human hepatocytes (LC-UV-MSn); format: in vitro ADME; details: for Percentage of ultraviolet area: human hepatocytes, 10 μM, 120 min; for metabolites detected: human hepatocyte metabolism, same condition as (±)-Lesinurad
Description: The purpose of this experiment was to confirm the metabolites of a series of compounds after incubation for 120 minutes in human hepatocytes using LC-UV-MS^n (n=1-2) detection. MS and MS^2 data were analyzed using MetaboLynx™ software after data collection.
Alter incubating the sample for 2 h, the protein was precipitated by using acetonitrile containing 01.% formic acid, centrifuged, and the supernatant was taken out and dried an under nitrogen, and dissolved and then injected for analysis.

[2] = Pharmacokinetics in SD rats after IV and PO administration; format: in vivo; details: rat; for bioavailability: read-out: Bioavailability F; for C0: read-out: Starting concentration C0; for Cmax: read-out: Peak concentration Cmax; for MRT inf: read-out: Detention time MRT0-inf; for half-life: read-out: Half-life T1/2 (converted)
Description: Drug concentrations in plasma of (−)-WX001 and (+)-WX002 were measured by LC/MS/MS method at different times after SD rats as tested animals were administered (−)-WX001 and (+)-WX002 by IV (intravenous injection) and PO (gavage), and the pharmacokinetic behavior of the compound in the present invention in rats was investigated, and its pharmacokinetic characteristics were evaluated.
12 healthy adult male SD rats were divided into 4 groups (each compound contained IV and PO group), 3 rats per group. SD rats were purchased from Shanghai Slac Laboratory Animal CO.LTD, whose animal production license number was SCXK (Shanghai) 2012-0002.
The appropriate amount of the sample was weighed, added a certain amount of DMSO and ultrasonic dissolved, and then was added 20% hydroxypropyl-β-cyclodextrin solution to give tested compound which was 1 mg/mL 5% DMSO/95% 20% HPCD clear solution used for IV and PO administration.
12 SD rats were divided into 4 groups and there were 3 male rats in each group, and administrated by IV, PO, respectively after fasting overnight. The dose of IV was 2 mg/kg and administration volume was 2 mL/kg; the dose of PO was 10 mg/kg and administration volume was 10 mL/kg.
In group of IV, about 200 μL of blood was collected at 0.083, 0.25, 0.5, 1, 2, 4, 6, 8, 24 hour after administration, placed in an anticoagulant tube of K2-EDTA, centrifuged at 3000 rpm for 15 minutes, and then plasma was separated and stored at −80° C. In group of PO, blood was collected at 0.25, 0.5, 1, 2, 4, 6, 8, 24 hour after administration, and the other operations were the same as the group of IV. The plasma samples were pretreated through precipitated protein and the plasma concentration was determined by LC/MS/MS method. A linear range of the analytical method was 4.00-6000 nM.

[3] = liver microsome, rat; cited from earlier work
[4] = liver microsome, dog; cited from earlier work
[5] = liver microsome, monkey; cited from earlier work
[6] = liver microsome, human; cited from earlier work
[7] = hepatocyte, rat; cited from earlier work
[8] = hepatocyte, dog; cited from earlier work
[9] = hepatocyte, monkey; cited from earlier work
[10] = hepatocyte, human; cited from earlier work
[11] = human, 0-144 h, after Lesinurad, cited from earlier work
URAT-1 = target: T1, URAT-1 (Homo sapiens, UniProt Q96S37); experiment: Inhibition of 14C-labelled uric acid transport in MDCK cell line stably transfected with the URAT-1 gene; format: cell-based; details: for IC50: MDCK cells stably transfected with URAT-1, 14C uric acid 50 uM, read-out: IC50 against URAT-1
T1 construct: expressed in transfected cells; host or cells: MDCK
T1 sequence (Q96S37 1-553): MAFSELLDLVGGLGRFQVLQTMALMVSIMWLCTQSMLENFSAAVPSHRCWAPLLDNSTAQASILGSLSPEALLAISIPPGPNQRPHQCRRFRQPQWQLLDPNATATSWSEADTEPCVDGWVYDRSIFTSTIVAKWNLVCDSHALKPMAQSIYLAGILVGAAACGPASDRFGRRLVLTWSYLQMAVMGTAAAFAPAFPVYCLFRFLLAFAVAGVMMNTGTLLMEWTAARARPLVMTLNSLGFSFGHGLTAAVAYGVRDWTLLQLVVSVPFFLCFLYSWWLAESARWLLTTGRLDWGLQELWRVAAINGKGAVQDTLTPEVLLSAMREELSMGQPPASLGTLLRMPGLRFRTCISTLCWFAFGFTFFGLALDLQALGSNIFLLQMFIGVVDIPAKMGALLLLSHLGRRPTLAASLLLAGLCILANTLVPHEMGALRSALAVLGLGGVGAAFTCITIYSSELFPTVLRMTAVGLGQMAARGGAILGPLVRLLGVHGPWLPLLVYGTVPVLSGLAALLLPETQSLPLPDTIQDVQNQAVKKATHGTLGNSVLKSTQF
Text: The inventors examined the ability of these compounds to inhibit the transport of labeled uric acid by MDCK cell lines stably transfected with the human URAT1 gene.
Determination of the IC50 value of the inhibitory activity of the compound against uric acid reabsorption by the MDCK cell line stably transfected with the URAT-1 (uric acid transporter) gene.
URAT-1 (MDCK) cell line: the MDCK cell line stably transfected with the URAT-1 gene
Cell culture medium: MEM culture medium added 10% fetal bovine serum (FBS), 1% sodium pyruvate and 250 ug/ml G418.
4) cells were diluted to 2.5×10^5/mL with the culture medium, and the diluted cells were added into a rat tail collagen-coated 24-well plate (800 uL/well, 2×10^5 cells/well). The plate was incubated overnight at 37° C. in a 5% CO2 incubator.
1) cells were seeded into 24-well plate, and supernatant was discarded after 16-18 h. The cells were washed twice using 600 ul HBSS buffer.
2) HBSS buffer was removed and 180 ul of HBSS buffer was added into each well again.
1) powder of compounds was dissolved into 100% DMSO, and diluted into 6 concentration points by 3-fold dilution, or into 2 concentration points by 10-fold dilution, and the highest starting concentration was 50 mM.
2) 5 ul DMSO solution in step 1) was transferred into 120 ul of HBSS buffer to make a 25-fold dilution.
3) 10 ul diluted solution in step 2) was added into 24-well plate, and the plate was incubated for 15 min at 37° C. in a 5% CO2 incubator. The final concentration of DMSO was 0.2%. The control well contained 0.2% DMSO without compound.
^14C-labelled uric acid was diluted and added into plate, and the final concentration was 50 uM. The plate was incubated for 10 min at 37° C. in a 5% CO2 incubator. After supernatant was discarded, cells were washed with HBSS buffer twice. Cells was lysed with 0.1M NaOH. And then cell lysis solution was collected into liquid scintillation tube and added with liquid scintillation solution. The signal was read by liquid scintillation counter Tri-Carb.
URAT-1 inhibition by the treatment of the compounds was analyzed by calculating the percentage of inhibition according to […] data. Non-linear curve fitting analysis on the percent inhibition (inh %) data using GraphPad Prism software generate the IC50 value.

[12] = male, SD, plasma, po, 10 mg/kg, PO 10 mpk
[13] = male, SD, plasma, iv, 2 mg/kg, IV 2 mpk

O=C(O)CSc1nnc(Br)n1-c1ccc(C2CC2)c2ccccc12 (racemic) [(±)-Lesinurad, Lesinurad, reference compound]
Percentage of ultraviolet area [1]: 95.60% | bioavailability [2, 12]: 84% | Area under curve AUC0-inf ([2]; IV 2 mpk): 14.823 µM·h | C0 ([2]; IV 2 mpk): 11.6 µM | Area under curve AUC0-inf ([2]; PO 10 mpk): 62.491 µM·h | Cmax ([2]; PO 10 mpk): 14.5 µM | amount of metabolite / parent found (Total 100) [3]: 100 | amount of metabolite / parent found (Total 100) [4]: 100 | amount of metabolite / parent found (Total 100) [5]: 92.1 | amount of metabolite / parent found (Total 100) [6]: 100 | amount of metabolite / parent found (Total 100) [7]: 100 | amount of metabolite / parent found (Total 100) [8]: 100 | amount of metabolite / parent found (Total 100) [9]: 98.1 | amount of metabolite / parent found (Total 100) [10]: 92.1 | Percentage of administered dose ([11]; Feces): 1.5% | Percentage of administered dose ([11]; Urine): 31.3%

O=C(O)CSc1nnc(Br)n1-c1c(Cl)cc(C2CC2)c2ccccc12 (racemic) [(±)-WX003]
IC50 (URAT-1): 10.4 µM

O=C(O)CSc1nnc(Br)n1-c1c(Cl)cc(C2CC2)c2ccccc12 (single isomer, unassigned) [(+)-WX002]
IC50 (URAT-1): > 20 µM | inhibitory activity against URAT-1 compared with reference (±)-Lesinurad (URAT-1; URAT1 MDCK cells): significantly improved inhibitory activity | metabolites detected [1]: no metabolites were detected | Percentage of ultraviolet area [1]: 100% | Area under curve AUC0-inf ([2]; IV 2 mpk, 2 mg/kg): 16.775 µM·h | Clearance rate Cl ([2]; IV 2 mpk, 2 mg/kg): 4.56 mL/min/kg | Detention time MRT0-inf ([2]; IV 2 mpk, 2 mg/kg): 3.58 h | Half-life T1/2 ([2]; IV 2 mpk, 2 mg/kg): 3.51 h | apparent volume of distribution Vdss ([2]; IV 2 mpk, 2 mg/kg): 0.97 L/kg | C0 ([2]; IV 2 mpk, 2 mg/kg): 12.9 µM | Peak time Tmax ([2]; PO 10 mpk): 1.67 h | Area under curve AUC0-inf ([2]; PO 10 mpk, 10 mg/kg): 77.436 µM·h | Bioavailability F ([2]; PO 10 mpk, 10 mg/kg): 76% | Detention time MRT0-inf ([2]; PO 10 mpk, 10 mg/kg): 4.82 h | Half-life T1/2 ([2]; PO 10 mpk, 10 mg/kg): 2.68 h | Cmax ([2]; PO 10 mpk, 10 mg/kg): 12 µM

CC(C)(Sc1nnc(Br)n1-c1c(Cl)cc(C2CC2)c2ccccc12)C(=O)O (single isomer, unassigned) [(+)-WX005]
IC50 (URAT-1): 1.4 µM | inhibitory activity against URAT-1 compared with reference (±)-Lesinurad (URAT-1; URAT1 MDCK cells): significantly improved inhibitory activity

O=C(O)CSc1nnc(Br)n1-c1c(Cl)cc(C2CC2)c2ccccc12 (single isomer, unassigned) [(−)-WX001]
IC50 (URAT-1): 8 µM | fold inhibitory activity in vitro compared to the other isomer (+)-WX002 (URAT-1; URAT1 MDCK cells): more than 3 fold | inhibitory activity against URAT-1 compared with reference (±)-Lesinurad (URAT-1; URAT1 MDCK cells): significantly improved inhibitory activity | metabolites detected [1]: no metabolites were detected | Percentage of ultraviolet area [1]: 100% | Tmax ([2]; male, SD, plasma, 10 mg/kg, PO 10 mpk, read-out: Peak time Tmax): 1.67 h | AUC(0-inf) ([2]; male, SD, plasma, iv, 2 mg/kg, IV 2 mpk, read-out: Area under curve AUC0-inf): 33 µM·h | clearance ([2]; male, SD, plasma, iv, 2 mg/kg, IV 2 mpk, read-out: Clearance rate Cl): 2.31 mL/min/kg | MRT inf [2, 13]: 4.4 h | half-life [2, 13]: 2.86 h | C0 [2, 13]: 11.7 µM | Vd ([2]; male, SD, plasma, iv, 2 mg/kg, IV 2 mpk, read-out: apparent volume of distribution Vdss): 0.61 L/kg | bioavailability [2, 12]: 94% | MRT inf [2, 12]: 7.18 h | half-life [2, 12]: 4.86 h | Cmax [2, 12]: 20.6 µM | Area under curve AUC0-inf ([2]; PO 10 mpk, 10 mg/kg): 154.895 µM·h

CC(C)(Sc1nnc(Br)n1-c1c(Cl)cc(C2CC2)c2ccccc12)C(=O)O (single isomer, unassigned) [(−)-WX004]
IC50 (URAT-1): 1.1 µM | inhibitory activity against URAT-1 compared with reference (±)-Lesinurad (URAT-1; URAT1 MDCK cells): significantly improved inhibitory activity

O=C(O)CSc1nncn1-c1ccc(C2CC2)c2ccccc12 [Compound M2]
Percentage of administered dose ([11]; Feces): 4.8% | Percentage of administered dose ([11]; Urine): 0.3%

O=C(O)CSc1nnc(Br)n1-c1ccc(C2(O)CC2)c2ccccc12 [Compound M3]
amount of metabolite / parent found (Total 100) [5]: 7.9 | amount of metabolite / parent found (Total 100) [7]: not detected | amount of metabolite / parent found (Total 100) [8]: not detected | Percentage of administered dose ([11]; Feces): 0.3% | Percentage of administered dose ([11]; Urine): 12.0%

O=C(O)CSc1nnc(Br)n1-c1ccc(C2CC2)c2c1C=CC(O)C2O (stereo not drawn) [Compound M4]
amount of metabolite / parent found (Total 100) [7]: not detected | amount of metabolite / parent found (Total 100) [8]: not detected | Percentage of administered dose ([11]; Feces): 5.0% | Percentage of administered dose ([11]; Urine): 15.7%

O=C(O)CSc1nncn1-c1ccc(C2(O)CC2)c2ccccc12 [Compound M5]
Percentage of administered dose ([11]; Feces): 3.6%
